Results from article PMC11586995, “Screening and Characterization of Sialic Acid-Binding Variable Lymphocyte Receptors from Hagfish” (BioTech, 2024).
“Also recorded” adds a separate entry of the source.

Tested on: ccombodies 2D8, 5G11, 6D2, and 4A1
Assay: Competitive ELISA of monosaccharide haptens against ccombody binding to BSA-CC-Neu5Ac
Design: species or system Eptatretus burgeri
Details: hapten 50 to 0.39 mM, all four candidates
Description: ELISA was carried out according to the method of Lazarte et al., with some modifications. Screening for sialic acid-binding ccombodies was carried out by coating 100 μL of a 300 ng/well BSA-CC-Neu5Ac glycoconjugate onto high-binding 96-well ELISA plates (Corning, Glendale, AZ, USA), along with BSA only (without CC) as a negative control. Plates were left standing overnight at 4 °C, after which they were washed three times with 1X TBST (10 mM Tris-HCl, 150 mM NaCl, and 0.5% Tween) to remove unbound antigen. Plates were blocked for 30 min with blocking buffer comprising 5% skimmed milk in 1× TBST at room temperature, then washed once with 1X TBST. Ccombody supernatants from HEK293F cells were then added onto the plates, incubated for 1 h 30 min, followed by washing three times with 1X TBST. Antigen bound ccombodies were detected with mouse anti-VLRB antibody (11G5) in blocking buffer by incubation for 1 h, followed by washing three times to remove unbound 11G5. Finally, bound 11G5 antibodies were detected by incubating for 1 h with HRP-conjugated goat anti-mouse IgG (1:5000 v/v in blocking buffer), then washed four times. Binding was quantified by the addition of 100 μL developing buffer composed of 42 mM 3,3′,5,5′-tetramethylbenzidine and 1% H2O2, then color development for 30 min at room temperature. The reaction was stopped by adding 50 μL of 2 M H2SO4. The absorbance was then read at 450 nm using an xMark (BIO-RAD, Hercules, CA USA) microplate reader. Competitive inhibition was determined through ELISA as presented earlier, with some modifications. Optimal subsaturating dilutions of ccombody-culture supernatants were used based on the preliminary antibody titration data. Competitive inhibitors, two-fold serially diluted (50 to 0.39 mM), were mixed with a constant amount of ccombody supernatant diluted in 5% skimmed milk in 1X TBST, then incubated for 1 h at room temperature. Next, 100 μL of the mixture was subsequently transferred into another 96-well ELISA plate containing a constant amount of antigen (500 ng/well) which was pre-blocked with 5% skimmed milk in 1X TBST. Antigen-bound ccombodies were detected by 11G5 and HRP-conjugated goat anti-mouse IgG. The normalized and background-corrected OD450 values were plotted against the ligand concentration, and the half-maximal inhibitory concentration (IC50) was computed by curve fitting using the Four Parameter Logistic (4PL) Curve Calculator [27]. Values are expressed as the mean of three determinations.

Inhibition of ccombody binding by free hapten	Compound
No significant inhibition	CC(=O)N[C@@H]1[C@@H](O)[C@@H](O)[C@@H](CO)O[C@@H]1O [N-acetylgalactosamine]
No significant inhibition	CC(=O)N[C@@H]1[C@@H](O)[C@H](O)[C@@H](CO)O[C@H]1O [N-acetylglucosamine]
No significant inhibition	O=C[C@H](O)[C@@H](O)[C@@H](O)[C@H](O)CO [galactose]
No significant inhibition	OC[C@H]1OC(O)[C@H](O)[C@@H](O)[C@@H]1O (stereo partly drawn) [glucose]
No significant inhibition	OC[C@H]1OC(O)[C@@H](O)[C@@H](O)[C@@H]1O (stereo partly drawn) [mannose]

Compound	Inhibition of ccombody binding by free hapten
CC(=O)N[C@H]1[C@H]([C@H](O)[C@H](O)CO)OC(O)(C(=O)O)C[C@@H]1O (stereo partly drawn) [Neu5Ac, N-acetylneuraminic acid]	strong inhibition; also recorded: strong inhibitory effects
